Experiment: In vitro reverse iontophoretic extraction of valproate and glutamate (Example 1)
Format: in vitro ADME, pig
Details: glutamate 60 μM
Method: The cathodal chamber was sampled only at the end of 5 hours of current passage.
Subsequent to this first period of 5 hours at 0.4 mA, a reduced current of 0.1 mA was passed for the next 19 hours, at the end of which both anodal and cathodal chambers were sampled.
The total experiment therefore lasted 24 hours.

[1] = subdermal valproate 21 μM, 4-5 h, 0.4 mA
[2] = subdermal valproate 21 μM, 5-24 h, 0.1 mA
[3] = subdermal valproate 35 μM, 4-5 h, 0.4 mA
[4] = subdermal valproate 35 μM, 5-24 h, 0.1 mA
[5] = subdermal valproate 70 μM, 4-5 h, 0.4 mA
[6] = subdermal valproate 70 μM, 5-24 h, 0.1 mA
[7] = subdermal valproate 104.5 μM, 4-5 h, 0.4 mA
[8] = subdermal valproate 104.5 μM, 5-24 h, 0.1 mA

For `N[C@@H](CCC(=O)O)C(=O)O` [Glutamate, glutamate], the “Transport number (×10^6)” value (subdermal valproate 21 μM, 0-1 h) was 7.89 ± 4.51 ×10^6, the Extraction flux (subdermal valproate 21 μM, 0-1 h, 0.4 mA) was 118 pmoles · h^−1 · cm^−2 and the “Transport number (×10^6)” value (subdermal valproate 21 μM, 1-2 h) was 20.6 ± 7.92 ×10^6. The Extraction flux (subdermal valproate 21 μM, 1-2 h, 0.4 mA) was 308 pmoles · h^−1 · cm^−2, the “Transport number (×10^6)” value (subdermal valproate 21 μM, 2-3 h) was 29.5 ± 7.38 ×10^6 and the Extraction flux (subdermal valproate 21 μM, 2-3 h, 0.4 mA) was 440 pmoles · h^−1 · cm^−2. For the same molecule, the “Transport number (×10^6)” value (subdermal valproate 21 μM, 3-4 h) was 32.1 ± 5.77 ×10^6, the Extraction flux (subdermal valproate 21 μM, 3-4 h, 0.4 mA) was 479 pmoles · h^−1 · cm^−2 and the Extraction flux [1] was 570 pmoles · h^−1 · cm^−2. For the same molecule, the “Transport number (×10^6)” value [1] was 38.2 ± 5.19 ×10^6, the Extraction flux [2] was 142 pmoles · h^−1 · cm^−2 and the “Transport number (×10^6)” value [2] was 38.1 ± 6.24 ×10^6. For the same molecule, the “Transport number (×10^6)” value (subdermal valproate 35 μM, 0-1 h) was 10.4 ± 5.47 ×10^6, the Extraction flux (subdermal valproate 35 μM, 0-1 h, 0.4 mA) was 155 pmoles · h^−1 · cm^−2 and the “Transport number (×10^6)” value (subdermal valproate 35 μM, 1-2 h) was 24.6 ± 5.83 ×10^6. The Extraction flux (subdermal valproate 35 μM, 1-2 h, 0.4 mA) was 367 pmoles · h^−1 · cm^−2, the “Transport number (×10^6)” value (subdermal valproate 35 μM, 2-3 h) was 32.4 ± 5.71 ×10^6 and the Extraction flux (subdermal valproate 35 μM, 2-3 h, 0.4 mA) was 484 pmoles · h^−1 · cm^−2. The “Transport number (×10^6)” value (subdermal valproate 35 μM, 3-4 h) was 38.2 ± 2.84 ×10^6, the Extraction flux (subdermal valproate 35 μM, 3-4 h, 0.4 mA) was 571 pmoles · h^−1 · cm^−2 and the Extraction flux [3] was 588 pmoles · h^−1 · cm^−2. For the same molecule, the “Transport number (×10^6)” value [3] was 39.4 ± 3.28 ×10^6, the Extraction flux [4] was 143 pmoles · h^−1 · cm^−2 and the “Transport number (×10^6)” value [4] was 38.3 ± 4.24 ×10^6. For the same molecule, the “Transport number (×10^6)” value (subdermal valproate 70 μM, 0-1 h) was 5.92 ± 3.03 ×10^6, the Extraction flux (subdermal valproate 70 μM, 0-1 h, 0.4 mA) was 88 pmoles · h^−1 · cm^−2 and the “Transport number (×10^6)” value (subdermal valproate 70 μM, 1-2 h) was 17.9 ± 6.88 ×10^6. For the same molecule, the Extraction flux (subdermal valproate 70 μM, 1-2 h, 0.4 mA) was 267 pmoles · h^−1 · cm^−2, the “Transport number (×10^6)” value (subdermal valproate 70 μM, 2-3 h) was 26.0 ± 6.32 ×10^6 and the Extraction flux (subdermal valproate 70 μM, 2-3 h, 0.4 mA) was 388 pmoles · h^−1 · cm^−2. For the same molecule, the “Transport number (×10^6)” value (subdermal valproate 70 μM, 3-4 h) was 33.1 ± 6.80 ×10^6, the Extraction flux (subdermal valproate 70 μM, 3-4 h, 0.4 mA) was 494 pmoles · h^−1 · cm^−2 and the Extraction flux [5] was 524 pmoles · h^−1 · cm^−2. For the same molecule, the “Transport number (×10^6)” value [5] was 35.1 ± 5.52 ×10^6, the Extraction flux [6] was 146 pmoles · h^−1 · cm^−2 and the “Transport number (×10^6)” value [6] was 39.2 ± 6.45 ×10^6. For the same molecule, the “Transport number (×10^6)” value (subdermal valproate 104.5 μM, 0-1 h) was 9.92 ± 4.20 ×10^6, the Extraction flux (subdermal valproate 104.5 μM, 0-1 h, 0.4 mA) was 148 pmoles · h^−1 · cm^−2 and the “Transport number (×10^6)” value (subdermal valproate 104.5 μM, 1-2 h) was 24.2 ± 4.79 ×10^6. The Extraction flux (subdermal valproate 104.5 μM, 1-2 h, 0.4 mA) was 361 pmoles · h^−1 · cm^−2, the “Transport number (×10^6)” value (subdermal valproate 104.5 μM, 2-3 h) was 32.8 ± 3.60 ×10^6 and the Extraction flux (subdermal valproate 104.5 μM, 2-3 h, 0.4 mA) was 490 pmoles · h^−1 · cm^−2. For the same molecule, the “Transport number (×10^6)” value (subdermal valproate 104.5 μM, 3-4 h) was 37.9 ± 4.98 ×10^6, the Extraction flux (subdermal valproate 104.5 μM, 3-4 h, 0.4 mA) was 566 pmoles · h^−1 · cm^−2 and the Extraction flux [7] was 599 pmoles · h^−1 · cm^−2. For the same molecule, the “Transport number (×10^6)” value [7] was 40.1 ± 5.16 ×10^6, the Extraction flux [8] was 157 pmoles · h^−1 · cm^−2 and the “Transport number (×10^6)” value [8] was 42.2 ± 6.22 ×10^6.

— US20050074810A1, “Method for non-invasilvely determining the relative levels of two biological substances” (priority 2001, published 2005)
